We go through 16 compounds from patent US12458581B2, “Carboxylic acid loaded salt carrier and the method for producing thereof” (priority 2021, dated 2025).

The structures appear in SMILES notation. Where two headings read alike, the source gives them in different places. Some results are limits rather than exact numbers.

Series [1] is described as follows: pH measurement of 0.1 M aqueous solutions. Type of series: physicochemical. To be noted: r.t.; for pH values compound: 0.1 M in millipore water, average of at least three measurements. The text has this:
For the pH measurements, a Seven2Go portable pH meter S2 (pH measuring-range: −2 to 20; resolution: 0.01) with an InLab Ultra Micro-ISM electrode (measuring range: pH −1 to pH 11; low temperature membrane glass type; ceramic diaphragm; reference system with Ag^+ ion trap by argenthal) as well as with an in-lab routine pH electrode (measuring range: pH 0 to pH 14; ceramic diaphragm; reference system with Ag^+ ion trap by argenthal) from Mettler-Toledo AG (Analytical, Switzerland) was used.
For sake of comparability, compounds of the same loading ratio n=2, which is 2:1 of the loaded carboxylic acid with respect to the carrier carboxylic acid, were selected for this analysis. […] The analytes were dissolved in millipore water, stirred for 5 minutes in an airtight vial to perform the pH measurements thereafter at r.t. All measurements were performed at 0.1 molar (M) concentration of the samples, which is 0.1 mol per liter (mol/L).
For sake of reliability, every result stated is the average of at least three single measurements. […] The numbers 1-73 (nr., first row) are used as an assignment for the 73 pairs, comprising the compound of invention (third row), the corresponding carrier carboxylic acid (fourth row) and the loaded carboxylic acid (fifth row), as used in the FIG. 6.

The conditions of series [2]: mean particle diameter.
Series [3] can be described thus: Thermal analysis (TGA/DTA). In kind it is physicochemical. How it is done:
Thermal analysis was carried out with a Linseis STA 1600 simultaneous thermal analyzer to determine simultaneous changes of weight (TGA signal) and caloric measurable transformations (DTA signal) in a temperature range between r.t. and 300° C.

Series [4] concerns Enterobacteria/β-Glucoronidase-positive-Enterobacteria (E/β). Briefly: Silage preservation: E/β count. Conditions: forage, 0.5 wt % topical, r.t., 31 days. As for the experimental part: (§1) All tests were conducted under equal conditions. […] The additives were dosed at 0.5 wt % and were applied topically to the samples. […] The preservation effectiveness was established by testing for total bacteria count (TBC), yeast/fungi count and Enterobacteria/β-Glucoronidase-positive-Enterobacteria (E/β).

Series [5] deals with total bacteria count (TBC). To be noted: forage, 0.5 wt % topical, r.t., 31 days. As for the experimental part:
as §1

Another series concerns yeast/fungi. Briefly: Silage preservation: yeast/fungi count. Conditions: forage, 0.5 wt % topical, r.t., 31 days. As for the experimental part:
as §1

A short description of series [6]: Application as additive in liquid shaving soap. The text has this:
The mix was stirred with hard soap pieces remaining undissolved and placed for 50 seconds at 600 W in a microwave oven. […] The mixture was placed for 80 seconds in a microwave at 600 W. Thereafter the resulting mixture was hand-blended and filled into a jar for testing and storage.

In series [1], `CC(=O)O.CC(=O)O.CC(=O)[O-].CC(=O)[O-].[Ca+2]` [CaAc-HAc [2], calcium acetate with loaded acetic acid] returned a pH values compound of 5.05. In addition, the dav in series [2] is recorded as 221 μm; in series [2] (listed as CaAc—HAc [2]), “approximately 220 μm”. Besides, the “thermal stability of the carrier carboxylic acid salt” value in series [3] (TGA/DTA between r.t. and 300° C.) is at most 300 °C. The “first loss of weight (TGA)” value in series [3] (partially hydrated sample prior drying, 25-135° C.) is −7.0 wt % of total weight. Further, in series [3] (partially hydrated sample prior drying, 135-300° C.), the “second stage of weight-loss (TGA)” value is on record as 11.7 wt % of the total weight. Besides, the “overall loss of weight (TGA)” value in series [3] (partially hydrated sample, between r.t. and 300° C.) was 18.74%.
As for `O=CO.O=CO.O=C[O-].O=C[O-].[Ca+2]` [CaFo-HFo [2], calcium formate with loaded formic acid], in series [1], the pH values compound stood at 5.19. Besides, the E/β count entry in series [4] was “dramatically reduce”. Further, the TBC result in series [5] is listed as “dramatically reduce”. Moreover, in the series on yeast/fungi, the yeast count entry was “dramatically reduce”.
On to `CCC(=O)O.CCC(=O)O.O=C[O-].O=C[O-].[Ca+2]` [CaFo-HProp [2], calcium formate with loaded propionic acid], for which the pH values compound in series [1] was found to be 5.79. Besides, in series [4], the E/β count entry is “dramatically reduce” and the “growth of β-Glucoronidase-positive-Enterobacteria (especially E. coli)” value is on record as “completely inhibit”. Besides, the TBC result in series [5] is on record as “dramatically reduce”. In the series with yeast/fungi, the growth of yeasts entry was “completely inhibit” and the yeast count entry is “dramatically reduce”.
On to `CC(O)C(=O)O.CC(O)C(=O)O.O=C([O-])c1ccccc1O.O=C([O-])c1ccccc1O.[Ca+2]` [CaSal-HLac [2], calcium salicylate with loaded lactic acid], for which the “stability (>24 h)” value in series [6] is reported as “yes”. In addition, in series [1], the pH values compound came to 3.43.
As to `CC(=O)O.CCC(=O)O.O=C([O-])C(O)C(O)C(=O)[O-].[Ca+2]` (stereo not shown) [CaT-HAc-HProp [1,1], calcium tartrate with loaded acetic acid and propionic acid], the pH values compound in series [1] amounted to 3.63. Moreover, the pH value in series [1] (0.1 M, compound made via in-situ process) is 3.63. Moreover, the dav is listed as 220 μm in series [2] and “approximately 220 μm” in series [2] (listed as CaT-HAc—HProp [1,1]).
`CCC(=O)O.CCC(=O)O.O=C[O-].O=C[O-].[Mg+2]` [MgFo-HProp [2], magnesium formate with loaded propionic acid] yielded a pH values compound in series [1] of 4.84. In series [3], the “thermal stability of the carrier carboxylic acid salt” value was “up to 300 °C”. Moreover, in series [3] (constant heating, 1° C. to 300° C., FIG. 4(A)), the “water release on heating (TGA)” value is on record as “no water is released”. Moreover, the “total loss of weight (TGA)” value in series [3] (dry sample, heating in the range of 125° C. to 200° C., 2 K/min, nitrogen) worked out at 24.4%.
With `CC(=O)O.CC(=O)O.CC(O)C(=O)[O-].CC(O)C(=O)[O-].[Mg+2]` (stereo not shown) [MgLac-HAc [2]], the pH values compound in series [1] came to 4.43.
The same measure, in the same setting: the same measure for `CC(=O)O.CC(O)C(=O)[O-].CC(O)C(=O)[O-].CCC(=O)O.[Mg+2]` (stereo not shown) [MgLac-HAc-HProp [1,1]]: 4.48; for `CC(O)C(=O)O.CC(O)C(=O)O.CC(O)C(=O)[O-].CC(O)C(=O)[O-].[Mg+2]` (stereo not shown) [MgLac-HLac [2]]: 3.31; for `CC(O)C(=O)[O-].CC(O)C(=O)[O-].CCC(=O)O.CCC(=O)O.[Mg+2]` (stereo not shown) [MgLac-HProp [2]]: 4.45.
The same measure, in the same setting: the result for `CC(=O)O.CC(=O)O.O=C([O-])CCC(=O)[O-].[Mg+2]` [MgSuc-HAc [2]] reads 4.69; that for `CCC(=O)O.CCC(=O)O.O=C([O-])CCC(=O)[O-].[Mg+2]` [MgSuc-HProp [2]], 5.18.
`O=C([O-])CC(O)(CC(=O)[O-])C(=O)[O-].O=C([O-])CC(O)(CC(=O)[O-])C(=O)[O-].[Ca+2].[Ca+2].[Ca+2]` [calcium citrate]: the “stability (>24 h)” value in series [6] (liquid shaving soap, additive 1 or 2 % wt) was “yes”.
For `O=C([O-])C(O)C(O)C(=O)[O-].[Ca+2]` (stereo not shown) [calcium tartrate, reference compound], the “pH value of the reference material (non-loaded carrier salt)” value in series [1] (0.1 M) is recorded as 7.33.
`O=C[O-].O=C[O-].[Mg+2]` [magnesium formate, reference compound]: the “pH value of the reference material (non-loaded carrier salt)” value in series [1] (0.1 M) is given as 7.90.
On to `O=C(O)CC(O)C(=O)O` (stereo not shown) [malic acid], for which the “stability (>24 h)” value in series [6] is on record as “no”.
